# Test results from patent US7022719B2, “Preventing and reversing the formation of advance glycosylation endproducts” (Alteon, Inc., priority 1995, dated 2006).
# Like-named read-outs stand apart in the source and are kept apart here.
# What was measured:
# [1] = tested on: AGE-BSA crosslinked to collagen; experiment: Cross-link Breaking Assay (sandwich enzyme immunoassay); assay type: biochemical
# Description: The present invention also involves a novel sandwich enzyme immunoassay used to ascertain the ability of test compounds to “break” or reverse already formed advanced glycosylation endproducts by detecting the breaking of AGE (Advanced glycosylation endproduct) moieties from AGE-crosslinked protein. This assay comprises: • a) incubation of AGE-modified bovine serum albumin (AGE BSA) on collagen-coated wells of microtiter plates for a period of 2–6 hours' at a temperature of 37° C.; • b) washing of the wells with PBS-Tween; • c) application of the test compounds to the washed wells of step b; • d) incubation of the test compounds applied to the washed wells for an additional 12–24 hours at a temperature of about 37° C.; and • e) detection of the AGE-breaking using an antibody raised against AGE-ribonuclease or cross-link breaking with an antibody against BSA.
# In order to ascertain the ability of the compounds of the instant invention to “break” or reverse already formed advanced glycosylation endproducts, a novel sandwich enzyme immunoassay was developed which detects breaking of AGE (Advanced glycosylation endproduct) moieties from AGE-crosslinked protein. The assay utilizes collagen-coated 96 well microtiter plates that are obtained commercially. […] Following an incubation period of 16 hours (37° C.) cross-link-breaking is detected using an antibody raised against AGE-ribonuclease or with an antibody against BSA. […] Details of the assay are as follows:
# Methods Preparation of Solutions and Buffers • 1. AGE-BSA stock solutions were prepared as follows. Sodium phosphate buffer (0.4 M) was prepared by dissolving 6 grams of monobasic sodium phosphate in 100 ml of distilled water, 7 grams of dibasic sodium phosphate (0.4 M) in 100 ml of distilled water and adjusting the pH of the dibasic solution to 7.4 with the monobasic solution. Sodium azide (0.02 grams) was added per 100 ml volume to inhibit bacterial growth. The BSA solution was prepared as follows: 400 mg of Type V BSA (bovine serum albumin) was added for each ml of sodium phosphate buffer (above). A 400 mM glucose solution was prepared by dissolving 7.2 grams of dextrose in 100 ml of sodium phosphate buffer (above). The BSA and glucose solutions were mixed 1:1 and incubated at 37° C. for 12 weeks. The pH of the incubation mixture was monitored weekly and adjusted to pH 7.4 if necessary. After 12 weeks, the AGE-BSA solution was dialyzed against PBS for 48 hours with four buffer changes, each at a 1:500 ratio of solution to dialysis buffer. Protein concentration was determined by the micro-Lowry method. The AGE-BSA stock solution was aliquoted and stored at −20° C. […] Working solutions for crosslinking and breaking studies were prepared as follows. Test compounds were dissolved in PBS and the pH was adjusted to pH 7.4 if necessary. AGE-BSA stock solution was diluted in PBS to measure maximum crosslinking and in the inhibitor solution for testing inhibitory activity of compounds. The concentration of AGE-BSA necessary to achieve the optimum sensitivity was determined by initial titration of each lot of AGE-BSA. • 3. Wash buffer (“PBS-Tween”) was, prepared as follows. PBS was prepared by dissolving the following salts in one liter of distilled water: NaCl, 8 grams; KC1, 0.2 gram, KH2PO4. […] Tween-20 was added to a final concentration of 0.05% (vol/vol). • 4. Substrates for detection of secondary antibody binding were prepared by diluting the HRP substrate buffer 1:10 in distilled water and mixing with ABTS chromogen 1:50 just prior to use. Assay Procedures • 1. Biocoat plates were blocked with 300 μl of “Superbloc”. Plates were blocked for one hour at room temperature and were washed with PBS-Tween three times with the Dynatech platewasher before addition of test reagents. • 2. Each experiment was set up in the following manner. The first three wells of the Biocoat plate were used for the reagent blank.
# [2] = tested on: cross-linking of glycated bovine serum albumin (AGE-BSA) to rat tail tendon collagen; experiment: Cross-linking Inhibition Assay; settings: for IC50: inhibition of AGE-BSA cross-linking to collagen-coated plate
# Description: The following method was used to evaluate the ability of the compounds of the present invention to inhibit the cross-linking of glycated bovine serum albumin (AGE-BSA) to the rat tail tendon collagen-coated 96-well plate.
# The blocking solution was removed from the wells by, washing the plate twice with PBS-'Tween 20 solution (0.05% Tween 20) using a NUNq-multiprobe or Dynatech ELISA-plate washer. Cross-linking of AGE-BSA (1 to 10 mg per well depending on the batch of AGE-BSA) to rat tail tendon collagen coated plate was performed with and without the testing ‘compound dissolved in PBS buffer at pH 7.4 at the desired concentrations by the, addition of 50 μl each of the AGE-BSA diluted in PBS or in the solution of test compound at 37° C. for 4 hours. Unbrowned BSA in PBS buffer with or without testing compound were added to the separate wells as the blanks. The un-cross-linked AGE-BSA was then removed by washing the wells three times with PBS-Tween buffer. The amount of AGE-BSA cross-linked to the tail tendon collagen-coated plate was then quantitated using a polyclonal antibody raised against AGE-RNase. After a one-hour incubation period, AGE antibody was removed by washing 4 times with PBS-Tween.
# The bound AGE antibody was then detected with the addition of horseradish peroxidase-conjugated secondary antibody—goat anti-rabbit immunoglobulin and incubation for 30 minutes. […] The reaction was allowed for an additional 15 minutes and the absorbance was read at 410 nm in a Dynatech plate reader.
# [3] = anti-AGE antibody, concentration not given
# [4] = anti-BSA antibody, concentration not given
# [5] = detection with anti-AGE antibody, read-out: IC50 (mM) Anti-AGE
# [6] = detection with anti-BSA antibody, read-out: IC50 (mM) Anti-BSA
molecule,measurement,setting,value
3-(2-(3′-methoxyphenyl]-2-oxoethyl)-thiazolium bromide,Breaking Anti-AGE,[1],22%/44% (10)
same,Breaking Anti-BSA,[1],22%/44% (10)
"Cn1cc[n+](CC(=O)c2cc(C(C)(C)C)c(O)c(C(C)(C)C)c2)c1 [1-methyl-3-(2-(3′,5′-di-tert-butyl-4′-hydroxyphenyl)-2-oxoethyl]-imidazolium bromide]",IC50,[2],4500 µM
same,Breaking Anti-AGE,"[1]; anti-AGE antibody, at 10 mM",56%
same,Breaking Anti-BSA,"[1]; anti-BSA antibody, at 10 mM",38%
"Cc1cc(C)c(S(=O)(=O)[O-])c(C)c1.Nc1sc(-c2ccc3c(c2)OCCCO3)c[n+]1N [2,3-Diamino-5-(3′,4′-trimethylenedioxyphenyl) thiazolium mesitylene sulfonate]",Breaking Anti-AGE,"[1]; anti-AGE antibody, at 1 mM",13%
same,Breaking Anti-BSA,"[1]; anti-BSA antibody, at 1 mM",42%
"Nc1sc2ccccc2[n+]1N [2,3-diaminio-benzothiazolium mesitylenesulfonate]",IC50,[2],74.9 µM
same,Breaking Anti-AGE,"[1]; anti-AGE antibody, at 30 mM",87%
same,Breaking Anti-BSA,"[1]; anti-BSA antibody, at 30 mM",54%
"Nc1ccc2c(c1)sc(N)[n+]2CC(=O)c1ccc(Br)cc1.[Br-] [2,6-diamino-3 (2-(4′-bromophenyl)-2-oxoethyl] benzothiazolium bromide]",Breaking Anti-AGE,"[1]; anti-AGE antibody, at 10 mM",27%
same,Breaking Anti-BSA,"[1]; anti-BSA antibody, at 10 mM",44%
"Nc1ccc2c(c1)sc(N)[n+]2CC(=O)c1ccc(F)cc1.[Br-] [2,6-diamino-3 (2-(4′-fluorophenyl-2-oxoethyl]benzothiazolium bromide]",Breaking Anti-AGE,"[1]; anti-AGE antibody, at 10 mM",24%
same,Breaking Anti-BSA,"[1]; anti-BSA antibody, at 10 mM",40%
"COc1ccc(C(=O)C[n+]2c(N)sc3cc(N)ccc32)cc1.[Br-] [2,6-diamino-3 (2-(4′-methoxyphenyl)-2-oxoethyl]benzothiazolium bromide]",Breaking Anti-AGE,"[1]; anti-AGE antibody, at 10 mM",29%
same,Breaking Anti-BSA,"[1]; anti-BSA antibody, at 10 mM",35%
"Cc1c(CCO)sc[n+]1CC(=O)c1ccc2c(c1)OCCO2.[Br-] [3 (2-(1′,4′-benzodioxan-6-yl)-2-oxoethyl]-4-methyl-5-(2′-hydroxyethyl)-thiazolium bromide]",Relative Cross-link Inhibition (at 10 mM),[2],13%
same,Breaking Anti-AGE,"[1]; anti-AGE antibody, at 3 mM",11%
same,Breaking Anti-BSA,"[1]; anti-BSA antibody, at 3 mM",21%
CCOC(=O)c1ccc(NC(=O)C[n+]2csc(CCO)c2C)cc1.[Br-] [3-(2-4′-carbethoxyanilino)-2-oxoethyl]-4-methyl-5-(2′-hydroxyethyl)-thiazolium bromide],Relative Cross-link Inhibition,[2],8.8% (1 mm)
same,Breaking Anti-AGE,"[1]; anti-AGE antibody, at 10 mM",48%
same,Breaking Anti-BSA,"[1]; anti-BSA antibody, at 10 mM",57%
CCN(CC)c1ccc(C(=O)C[n+]2csc(CCO)c2C)cc1 [3-(2-4′-diethylaminophenyl)-2-oxoethyl]-4-qj. methyl-5-(2′-hydroxyethyl)-thiazolinium bromide],IC50,[2],2800 µM
"Cc1c(CCO)sc[n+]1CC(=O)Nc1c(C(C)C)cccc1C(C)C.[Br-] [3-(2-(2′,6′-Diisopropylanilino)-2-oxoethyl]-4-methyl-5-(2′-hydroxyethyl)-thiazolium bromide]",Relative Cross-link Inhibition (at 10 mM),[2],19%
same,Breaking Anti-AGE,"[1]; anti-AGE antibody, at 10 mM",31%
same,Breaking Anti-BSA,"[1]; anti-BSA antibody, at 10 mM",48%
"O=C(C[n+]1ccsc1)c1ccc2c(c1)OCCCO2.[Br-] [3-(2-(3′,4′-trimethylenedioxyphenyl)-2-oxoethyl]-thiazolium bromide]",Breaking Anti-AGE,"[1]; anti-AGE antibody, at 10 mM",17%
same,Breaking Anti-BSA,"[1]; anti-BSA antibody, at 10 mM",18%
"Cc1sc[n+](CC(=O)c2cc(C(C)(C)C)c(O)c(C(C)(C)C)c2)c1C [3-(2-(3′,5′-di-tert-butyl-4′-hydroxypheny].)-2-oxoethyl]-4,5-dimethyl-thiazolium bromide]",IC50,[2],160 µM
"C=Cc1sc[n+](CC(=O)c2cc(C(C)(C)C)c(O)c(C(C)(C)C)c2)c1C [3-(2-(3′,5′-tert-butyl-4′-hydroxyphenyl)-2-oxoethyl)-4-methyl-5-vinyl-thiazolium bromide]",Breaking Anti-AGE,"[1]; anti-AGE antibody, at 0.3 mM",32%
same,Breaking Anti-BSA,"[1]; anti-BSA antibody, at 0.3 mM",50%
"Cc1sc[n+](CC(=O)c2ccc(Br)cc2)c1C [3-(2-(4-bromophenyl]-2-oxoethyl)-4,5-dimethylthiazolium bromide]",IC50,[2],2920 µM
O=C(C[n+]1ccsc1)c1ccc(Br)cc1.[Br-] [3-(2-(4^1-bromophenyl]-2-oxoethyl)-thiazolium bromide],Breaking Anti-AGE,"[1]; anti-AGE antibody, at 30 mM",76%
same,Breaking Anti-BSA,"[1]; anti-BSA antibody, at 30 mM",25%
COC(=O)c1ccc(NC(=O)C[n+]2csc(CCO)c2C)cc1O [3-(2-(4′-carbmethoxy-3′-hydroxyanilino)-2-oxoethyl]-4-methyl-5-(2′-hydroxyethyl)-thiazolium bromide],IC50,[2],1760 µM
same,Breaking Anti-AGE,"[1]; anti-AGE antibody, at 10 mM",24%
same,Breaking Anti-BSA,"[1]; anti-BSA antibody, at 10 mM",18%
CCCCCc1ccc(C(=O)C[n+]2csc(CCO)c2C)cc1.[Br-] [3-(2-(4′-n-pentylphenyl)-2-oxoethyl]-4-methyl-5-(2′-hydroxyethyl)-thiazolinium],Relative Cross-link Inhibition,[2]; 3 mM,52% @ 3 mM
same,IC50,[2],1530 µM
Cc1c(CCO)sc[n+]1CC(=O)c1ccc(Br)cc1 [3-(2-(41-bromophenyl]-2-oxoethyl)-4-methyl-5-(2-hydroxyethyl)thiazolium bromide],IC50,[2],2950 µM
COC(=O)C[n+]1ccsc1.[Br-] [3-(2-Methoxy-2-oxoethyl)-thiazolium bromide],IC50,[2],250 µM
same,Breaking Anti-AGE,"[1]; anti-AGE antibody, at 30 mM",38%
same,Breaking Anti-BSA,"[1]; anti-BSA antibody, at 30 mM",41%
"Cc1sc[n+](CC(N)=O)c1C.[Br-] [3-(2-amino-2-oxoethyl)-4,5-dimethyl-thiazolium bromide]",IC50,[2],9900 µM
same,Breaking Anti-AGE,"[1]; anti-AGE antibody, at 30 mM",61%
same,Breaking Anti-BSA,"[1]; anti-BSA antibody, at 30 mM",16%
Cc1c(CCO)sc[n+]1CC(N)=O.[Br-] [3-(2-amino-2-oxoethyl)-4-methyl-5-(2-hydroxyethyl) thiazolium bromide],IC50,[2],1420 µM
same,Breaking Anti-AGE,[1]; [3],65%
same,Breaking Anti-BSA,[1]; [4],57%
same,IC50,[1]; [5],0.012 mM
same,IC50,[1]; [6],0.12 mM
Cc1c[n+](CC(N)=O)cs1 [3-(2-amino-2-oxoethyl)-5-methyl-thiazolium bromide],IC50,[2],28.9 µM
"NC(=O)C[n+]1ccsc1 [3-(2-amino-2-oxoethyl)thiazolium bromide, 3-(2-amino-2-oxoethyl)-thiazolium bromide]",IC50,[2],530 µM
COC(=O)C[n+]1cscc1C.[Br-] [3-(2-methoxy-2-oxoethyl)-4-methylthiazolium bromide],Breaking Anti-AGE,"[1]; anti-AGE antibody, at 30 mM",54%
same,Breaking Anti-BSA,"[1]; anti-BSA antibody, at 30 mM",51%
CC(=O)C[n+]1ccsc1.[Cl-] [3-(2-methyl-2-oxoethyl) thiazolium chloride],Breaking Anti-AGE,[1]; [3],56%
same,Breaking Anti-BSA,[1]; [4],93%
same,IC50,[1]; [5],0.83 mM
same,IC50,[1]; [6],0.75 mM
Cc1c[n+](CC(=O)c2ccccc2)cs1 [3-(2-phenyl-2-oxoethyl)-5-methyl-thiazolium bromide],IC50,[2],12600 µM
"Cc1c(CCO)sc[n+]1Cc1c(Cl)cccc1Cl.[Cl-] [3-(2′,6′-dichlorobenzyl)-4-methyl-5-(2′-15 hydroxyethyl)-thiazolium chloride]",Breaking Anti-AGE,"[1]; anti-AGE antibody, at 10 mM",6%
same,Breaking Anti-BSA,"[1]; anti-BSA antibody, at 10 mM",27%
"O=C(O)C[n+]1csc2ccccc21.[Br-] [3-(carboxymethyl)benzothiazolium bromide, 3-(carboxymethyl)-benzothiazolium bromide]",Breaking Anti-AGE,"[1]; anti-AGE antibody, at 30 mM",63.7%
same,Breaking Anti-BSA,"[1]; anti-BSA antibody, at 30 mM",17.9%
"Cc1csc[n+]1CC(=O)c1cc(C(C)(C)C)c(O)c(C(C)(C)C)c1.[Br-] [3-[2-(3′,5′-di-tert-butyl-4′-hydroxyphenyl)-2-oxoethyl]-4-methyl-thiazolium bromide]",Breaking Anti-AGE,"[1]; anti-AGE antibody, at 0.3 mM",14%
same,Breaking Anti-BSA,"[1]; anti-BSA antibody, at 0.3 mM",2%
Cc1c(CCO)sc[n+]1Cc1ccccc1.[Cl-] [3-benzyl-5-(2-hydroxyethyl)-4-methyl thiazolium chloride],Breaking Anti-AGE,"[1]; anti-AGE antibody, at 30 mM",65%
same,Breaking Anti-BSA,"[1]; anti-BSA antibody, at 30 mM",61%
same,IC50,[1]; [5],0.42 mM
same,IC50,[1]; [6],0.55 mM
